In ChEMBL document CHEMBL4602708, “Discovery of CNS-Penetrant Apoptosis Signal-Regulating Kinase 1 (ASK1) Inhibitors” (ACS Med Chem Lett, 2020):

Tests used:
P-gp (MDR1), human = experiment: Apparent permeability from apical to basolateral side in MDCK-MDR1 cells transfected with human p-gp; assay type: ADME, cell-based, Canis lupus familiaris; settings: dog
[1] = Volume of distribution at steady state in rat; assay type: ADME; settings: in vivo, read-out: Vdss

Row | SMILES | Papp A→B (P-gp (MDR1), human) [×10⁻⁶ cm/s] | Vd [1] [L/kg]
1 | COc1nn(-c2cnccn2)cc1C(=O)Nc1cccc(-c2nncn2C(C)C)n1 | 5 | 2.3
2 | C[C@H]1CCCOc2nn(C)cc2C(=O)Nc2cccc(n2)-c2nncn21 | 1.8 | 2.7
